Test results as given in patent EP4714939A1, “SULFONAMIDE COMPOUND, PREPARATION METHOD THEREFOR, AND PHARMACEUTICAL USE THEREOF” (Shenzhen Salubris Pharmaceuticals Co., Ltd., priority 2023, dated 2024).

System: Lp(a)
Test: In-vitro Lp(a) assembly assay (cell-free, sandwich ELISA)
Type: biochemical
Conditions: inhibition of Lp(a) formation; HepG2 and HEK293 (human Apo(a), 17 Kringle repeats) conditioned media, 37°C, 2 hours; 4-parameter curve
Experimental: The capability of the compounds in the examples inhibiting the formation of Lp(a) particles in vitro was evaluated through cell-free assembly assay. After incubation at 37°C with 5% CO2 for 96 h, conditioned media (supplemented with 10% FBS, 20 mM HEPES, and 1 × penicillin/streptomycin DMEM) was collected from confluent wild-type HepG2 cells (source of endogenously expressed ApoB) and an HEK293 stable cell line expressing human Apo(a) protein containing 17 Kringle repeats (selected on 1 ug/ml puromycin). In-vitro assembly assay was performed by combining equal parts of HepG2 and HEK293 conditioned media with compounds under test added in a dilution series (final concentration being 0.03-1000 nM). A reaction was incubated at 37°C for 2 hours, and terminated by adding 6-aminocaproic acid (EACA) to a final concentration of 150 mM. Sandwich ELISA was used to detect Lp(a) using an anti-Apo(a) capture antibody (ab242565) and an HRP-conjugated anti-ApoB detection antibody (ab27622). ELISA was performed using TMB staining, and terminated with 1N sulfuric acid, and signals were read at 450 nm on an Envision 2104 plate reader. By setting an assembly reaction without inhibitors to 0% inhibition and an assembly reaction with the minimum amount of HepG2 conditioned medium (50-fold dilution) to 100% inhibition, the % inhibition of Lp(a) formed under each test condition was determined. Table 1 IC90 values of sulfonamide compounds

SMILES | IC90 [nM]
O=C(O)C(Cc1cccc(CN(Cc2cccc(CC(C(=O)O)C3CCNC3)c2)S(=O)(=O)c2cc(F)cc(CC(C(=O)O)C3CCNC3)c2)c1)C1CCNC1 [Compound 7, (2S,2'S)-3,3'(3-((S)-2-carboxyl-2-(R)-pyrrolid-3-yl)ethyl)-5-fluorophenyl sulfonyl)azadiyl)dimethylenyl)bis(3,1-phenylenyl)bis(2-(R)-pyrrolid-3-yl)propanoic acid)] | 69.9
O=C(O)[C@@H](Cc1cccc(S(=O)(=O)N(CCc2ccccc2C[C@H](C(=O)O)[C@H]2CCNC2)Cc2cccc(C[C@H](C(=O)O)[C@H]3CCNC3)c2F)c1)[C@H]1CCNC1 [Compound 25, (S)-3-(3-(N-(3-((S)-2-carboxyl-2-((R)-pyrrolid-3-yl)etyhl)-2-fluorobenzyl) -N-(2-(S)2-carboxyl-2-((R)-pyrrolid-3-yl)ethyl)phenethyl)aminosulfonyl)phenyl)-2-(((R)-pyrrolid-3-yl)propanoic acid] | 81.7
O=C(O)[C@@H](Cc1cc(CN(Cc2ccc(F)c(C[C@H](C(=O)O)[C@H]3CCNC3)c2)S(=O)(=O)c2ccc(Cl)c(C[C@H](C(=O)O)[C@H]3CCNC3)c2)ccc1F)[C@H]1CCNC1 [Compound 36, (2S,2'S)-3,3'-(((((3-((S)-2-carboxyl-2-((R)-pyrrolid-3-yl)ethyl)-4-chlorophenyl)sulfonyl)azadiyl)bis(methylenyl))bis(6-fluoro-3,1-phenylenyl))bis(2-((R)-pyrrolid-3-yl)propanoic acid)] | 21.6
O=C(O)C(Cc1cccc(CN(Cc2cccc(CC(C(=O)O)C3CCNC3)c2)S(=O)(=O)c2ccc(Cl)c(CC(C(=O)O)C3CCNC3)c2)c1)C1CCNC1 [Compound 35, (2S,2'S)-3,3'-(((((3-((S)-2-carboxyl-2-((R)-pyrrolid-3-yl)ethyl)-4-chlorophenyl)sulfonyl)azadiyl)bis(methylenyl))bis(3,1-phenylenyl))bis(2-((R)-pyrrolid-3-yl)propanoic acid)] | 41.3
O=C(O)C(Cc1cccc(CN(Cc2cccc(CC(C(=O)O)C3CCNC3)c2)S(=O)(=O)c2cc(CC(C(=O)O)C3CCNC3)ccc2F)c1)C1CCNC1 [Compound 29, (2S,2'S)-3,3'(5-((S)-2-carboxyl-2-(R)-pyrrolid-3-yl)ethyl)-2-fluorophenyl sulfonyl)azadiyl)dimethylenyl)bis(3,1-phenylenyl)bis(2-(R)-pyrrolid-3-yl)propanoic acid)] | 24.9
O=C(O)[C@@H](Cc1cccc(CN(Cc2ccc(Cl)c(C[C@H](C(=O)O)[C@H]3CCNC3)c2)S(=O)(=O)c2cccc(C[C@H](C(=O)O)[C@H]3CCNC3)c2)c1)[C@H]1CCNC1 [Compound 10] | 52.3
O=C(O)C(Cc1cccc(CCN(CCc2cccc(CC(C(=O)O)C3CCNC3)c2)S(=O)(=O)c2cccc(CC(C(=O)O)C3CCNC3)c2)c1)C1CCNC1 [Compound 21, (2S,2'S)-3,3'(3-((S)-2-carboxyl-2-((R)-pyrrolid-3-yl)ethyl)phenyl)sulfonyl)azadiyl)bis(ethane-2,1-diyl))bis(3,1-phenylenyl)bis(2-(R)-pyrrolid-3-yl)propanoic acid)] | 33.9
O=C(O)C(Cc1cc(S(=O)(=O)N(Cc2ccc(Cl)c(CC(C(=O)O)C3CCNC3)c2)Cc2ccc(Cl)c(CC(C(=O)O)C3CCNC3)c2)ccc1F)C1CCNC1 [Compound 42, (2S,2'S)-3,3'(3-((S)-2-carboxyl-2-(R)-pyrrolid-3-yl)ethyl)-4-fluorophenylsu lfonyl)azadiyl)dimethylenyl)bis(6-chloro-3,1-phenylenyl)bis(2-(R)-pyrrolid-3-yl)propanoic acid)] | 25.1
O=C(O)C(Cc1ccc(F)c(CN(Cc2cc(CC(C(=O)O)C3CCNC3)ccc2F)S(=O)(=O)c2ccc(F)c(CC(C(=O)O)C3CCNC3)c2)c1)C1CCNC1 [Compound 34, (2S,2'S)-3,3'-(((((3-((S)-2-carboxyl-2-((R)-pyrrolid-3-yl)ethyl)-4-fluorophenyl)sulfonyl)azadiyl)bis(methylenyl))bis(6-fluoro-3,1-phenylenyl))bis(2-((R)-pyrrolid-3-yl)propanoic acid)] | 17.7
O=C(O)[C@@H](Cc1cccc(CN(Cc2cccc(C[C@H](C(=O)O)[C@H]3CCNC3)c2)S(=O)(=O)c2ccc(F)c(C[C@H](C(=O)O)[C@H]3CCNC3)c2)c1)[C@H]1CCNC1 [Compound 6] | 47.8
O=C(O)[C@@H](Cc1cccc(CCN(Cc2cccc(C[C@H](C(=O)O)[C@H]3CCNC3)c2)S(=O)(=O)c2cccc(C[C@H](C(=O)O)[C@H]3CCNC3)c2)c1)[C@H]1CCNC1 [Compound 20] | 30.7

Second part, the compound after the results:

IC90 [nM] | SMILES
76.2 | O=C(O)C(Cc1cccc(CN(Cc2ccccc2CC(C(=O)O)C2CCNC2)S(=O)(=O)c2cccc(CC(C(=O)O)C3CCNC3)c2)c1)C1CCNC1 [Compound 23, (S)-3-(3-(((3-(S)-2-carboxyl-2-((R)-pyrrolid-3-yl)ethyl)-N-(2-((S)2-carboxyl-2-(R)pyrrolid-3-yl)ethyl)benzyl)phenyl)sulfonamido)methyl)phenyl)-2-((R)-pyrrolid-3-yl)propanoic acid]
86.7 | O=C(O)[C@@H](Cc1cccc(S(=O)(=O)N(CCc2ccccc2C[C@H](C(=O)O)[C@H]2CCNC2)Cc2cc(C[C@H](C(=O)O)[C@H]3CCNC3)ccc2F)c1)[C@H]1CCNC1 [Compound 26]
23.8 | O=C(O)[C@@H](Cc1cccc(S(=O)(=O)N(Cc2cc(C[C@H](C(=O)O)[C@H]3CCNC3)c(F)cc2F)Cc2cc(C[C@H](C(=O)O)[C@H]3CCNC3)c(F)cc2F)c1)[C@H]1CCNC1 [Compound 16]
24.4 | O=C(O)[C@@H](Cc1cccc(S(=O)(=O)N(Cc2ccc(F)c(C[C@H](C(=O)O)[C@H]3CCNC3)c2)Cc2cc(C[C@H](C(=O)O)[C@H]3CCNC3)ccc2F)c1)[C@H]1CCNC1 [Compound 14]
29 | O=C(O)[C@@H](Cc1cccc(CN(Cc2ccc(F)c(C[C@H](C(=O)O)[C@H]3CCNC3)c2F)S(=O)(=O)c2cccc(C[C@H](C(=O)O)[C@H]3CCNC3)c2)c1)[C@H]1CCNC1 [Compound 30]
81.8 | O=C(O)[C@@H](Cc1cccc(CCN(Cc2ccc(Cl)c(C[C@H](C(=O)O)[C@H]3CCNC3)c2)S(=O)(=O)c2cccc(C[C@H](C(=O)O)[C@H]3CCNC3)c2)c1)[C@H]1CCNC1 [Compound 38]
86.5 | O=C(O)[C@@H](Cc1cc(F)cc(CCN(Cc2cccc(C[C@H](C(=O)O)[C@H]3CCNC3)c2)S(=O)(=O)c2cccc(C[C@H](C(=O)O)[C@H]3CCNC3)c2)c1)[C@H]1CCNC1 [Compound 28]
40.3 | O=C(O)[C@@H](Cc1cccc(CN(Cc2cc(C[C@H](C(=O)O)[C@H]3CCNC3)ccc2F)S(=O)(=O)c2cccc(C[C@H](C(=O)O)[C@H]3CCNC3)c2)c1)[C@H]1CCNC1 [Compound 4]
79.6 | O=C(O)[C@@H](Cc1cccc(S(=O)(=O)N(CCc2ccccc2C[C@H](C(=O)O)[C@H]2CCNC2)Cc2cc(C[C@H](C(=O)O)[C@H]3CCNC3)c(F)cc2F)c1)[C@H]1CCNC1 [Compound 27]
31.4 | O=C(O)[C@@H](Cc1cccc(CN(Cc2c(F)ccc(C[C@H](C(=O)O)[C@H]3CCNC3)c2F)S(=O)(=O)c2cccc(C[C@H](C(=O)O)[C@H]3CCNC3)c2)c1)[C@H]1CCNC1 [Compound 32]
62.6 | O=C(O)[C@@H](Cc1cccc(CN(Cc2ccc(F)c(C[C@H](C(=O)O)[C@H]3CCNC3)c2)S(=O)(=O)c2cccc(C[C@H](C(=O)O)[C@H]3CCNC3)c2)c1)[C@H]1CCNC1 [Compound 2]
